According to patent publication US4169096A, “Antibiotic compounds” (priority 1977, dated 1979):
Read-outs that look alike come from different tables or passages of the source.

What was measured:
[1] = system: B. fragilis A20926; test: Localized infection with B. fragilis in mice; type: in vivo; conditions: for mean score: control 4.2; for sum of score: control 21; for infectivity level: control 100%
[2] = system: C. perfringens A9635; test: animal or person; type: in vivo, mice; conditions: Clostridium perfringens, A9635, in Mus musculus, 120 h, read-out: PD50
[3] = subcutaneous or oral
[4] = in vivo; conditions: mouse

SMILES: Cc1ncc([N+](=O)[O-])n1CCO [Flagyl]
- mean score ([1]; oral, 6.3 × 5 mg/kg): 3.4
- sum of score ([1]; oral, 6.3 × 5 mg/kg): 17
- infectivity level ([1]; oral, 6.3 × 5 mg/kg): 81.0%
- mean score ([1]; oral, 25 × 5 mg/kg): 2.6
- sum of score ([1]; oral, 25 × 5 mg/kg): 13
- infectivity level ([1]; oral, 25 × 5 mg/kg): 61.9%
- mean score ([1]; oral, 100 × 5 mg/kg): 1.6
- sum of score ([1]; oral, 100 × 5 mg/kg): 8
- infectivity level ([1]; oral, 100 × 5 mg/kg): 38.1%
- mean score ([1]; oral, […] 5 mg/kg): 4.0
- sum of score ([1]; oral, […] 5 mg/kg): 20
- infectivity level ([1]; oral, […] 5 mg/kg): 95.2%
- mean score ([1]; subcutaneous, 0.8 × 5 mg/kg): 4.0
- sum of score ([1]; subcutaneous, 0.8 × 5 mg/kg): 20
- infectivity level ([1]; subcutaneous, 0.8 × 5 mg/kg): 95.2%
- mean score ([1]; subcutaneous, 3.1 × 5 mg/kg): 3.4
- sum of score ([1]; subcutaneous, 3.1 × 5 mg/kg): 17
- infectivity level ([1]; subcutaneous, 3.1 × 5 mg/kg): 81.0%
- mean score ([1]; subcutaneous, 50 × 5 mg/kg): 2.0
- sum of score ([1]; subcutaneous, 50 × 5 mg/kg): 10
- infectivity level ([1]; subcutaneous, 50 × 5 mg/kg): 47.6%
- mean score ([1]; subcutaneous, […] 5 mg/kg): 2.4
- sum of score ([1]; subcutaneous, […] 5 mg/kg): 12
- infectivity level ([1]; subcutaneous, […] 5 mg/kg): 57.1%
- ED50 ([2]; po): 60 mg/kg
- ED50 ([2]; sc): 31 mg/kg
- absorption compared with Bu-2313B [3]: better absorptions than Bu-2313B
- concentration at 0.5 h ([4]; po, 25 mg/kg): 8800 ng/mL
- concentration at 1 h ([4]; po, 25 mg/kg): 6700 ng/mL
- concentration at 3 h ([4]; po, 25 mg/kg): 6100 ng/mL
- concentration at 0.5 h ([4]; po, 50 mg/kg): 20000 ng/mL
- concentration at 1 h ([4]; po, 50 mg/kg): 15000 ng/mL
- concentration at 3 h ([4]; po, 50 mg/kg): 11000 ng/mL
- concentration at 0.5 h ([4]; po, 100 mg/kg): 56000 ng/mL
- concentration at 1 h ([4]; po, 100 mg/kg): 41000 ng/mL
- concentration at 3 h ([4]; po, 100 mg/kg): 24000 ng/mL
- concentration at 5 h ([4]; po, 100 mg/kg): 13000 ng/mL
- concentration at 0.5 h ([4]; sc, 25 mg/kg): 15000 ng/mL
- concentration at 1 h ([4]; sc, 25 mg/kg): 12000 ng/mL
- concentration at 2 h ([4]; sc, 25 mg/kg): 8300 ng/mL
- concentration at 0.5 h ([4]; sc, 50 mg/kg): 32000 ng/mL
- concentration at 1 h ([4]; sc, 50 mg/kg): 26000 ng/mL
- concentration at 2 h ([4]; sc, 50 mg/kg): 12000 ng/mL
- concentration at 0.5 h ([4]; sc, 100 mg/kg): 121000 ng/mL
- concentration at 1 h ([4]; sc, 100 mg/kg): 98000 ng/mL
- concentration at 2 h ([4]; sc, 100 mg/kg): 40000 ng/mL
